The source of these data is publication PMC7911889 (Viruses, 2021).

Where two headings read alike, the source gives them in different places. Non-standard residues stand in square brackets, D forms with d. Residues, ends and D or L forms follow the SMILES beside them. *: point of attachment. Nva = CCC[C@H](N)C(=O)O; Cbz = O=C(OCc1ccccc1)*

The nature of one data set: in vitro. The note with it: human.
Another data set has as its system SARS-CoV-2. More on the design: method as in per compound as in References column of Table 1. The following applies: read-out: Reported EC50 for inhibition of SARS-CoV-2 replication in cell culture; cited from earlier work.
A further data set relates to cell culture. The note with it: cited from earlier work.
Data set [1] relates to 293T human embryonic kidney cells.
[2] abbreviates: transfected 293T cells (human embryonic kidney).
Where [3] appears, read: read-out: CC50, CellTiter-Glo 2.0 assay, transfected 293T cells, 30 h post-transfection.

The molecule `COc1cccc2c1C(=O)c1c(O)c3c(c(O)c1C2=O)C[C@@](O)(C(=O)CO)C[C@@H]3O[C@H]1C[C@H](N)[C@H](O)[C@H](C)O1` [doxorubicin] returned a CC50 at 30 h post-transfection in “in vitro” (setting [2]) of 3.7 µM.

`COc1ccc2cc(-c3cc(-c4cc(Cl)cc(Cl)c4)nn3[C@@H](C)c3ccc(C(=O)NCCC(=O)O)cc3)ccc2c1` [MK 0893]: the EC50 (commonly the midpoint of the concentration-response curve) in the data set on SARS-CoV-2 was 3.2 µM. This molecule also had a CC50 in the data set “in vitro” of 42.3 µM. In addition, in the data set with cell culture, the “Reported CC50 (corresponding to reported EC50)” value (from here on “Reported CC50”) was 12.6 µM.

`Cc1cccc(C)c1OCC(=O)N[C@@H](Cc1ccccc1)[C@@H](O)C[C@H](Cc1ccccc1)NC(=O)[C@H](C(C)C)N1CCCNC1=O` [Lopinavir]: the CC50 in the data set “in vitro” turned out to be 29.1 µM.

`CC(C)CN(C[C@@H](O)[C@H](Cc1ccccc1)NC(=O)O[C@H]1CO[C@H]2OCC[C@H]21)S(=O)(=O)c1ccc(N)cc1` [Darunavir]: the EC50 in the data set on SARS-CoV-2 is 46.4 µM.

Take `CCC[C@H](NC(=O)[C@@H]1[C@H]2CCC[C@H]2CN1C(=O)[C@@H](NC(=O)[C@@H](NC(=O)c1cnccn1)C1CCCCC1)C(C)(C)C)C(=O)C(=O)NC1CC1` [Telaprevir]: the CC50 at 30 h post-transfection in the data set “in vitro” (setting [2]) came to 71.5 µM.

`CC(C)(C)NC(=O)N[C@H](C(=O)N1C[C@H]2[C@@H]([C@H]1C(=O)NC(CC1CCC1)C(=O)C(N)=O)C2(C)C)C(C)(C)C` (stereo partly drawn) [Boceprevir]: the CC50 at 30 h post-transfection in the data set “in vitro” was above 100 µM. Moreover, in the data set with cell culture, the “Reported CC50” value was >100–>200.

Turning to `Cn1nc(-c2ccc(C(F)(F)F)cc2)nc2c(=O)n(C)c(=O)nc1-2` [Walrycin B], in the data set with cell culture, the “Reported CC50” value is reported as 4.3 µM. In data set [1], this molecule registered a CC50 of 29 µM.

As to `O=C(Oc1cncc(Cl)c1)c1cccs1` [MAC 5576], the “Reported CC50” value in the data set on cell culture is above 100 µM. Also, in data set [1], the CC50 is above 100 µM.

Take `O=c1c2ccccc2[se]n1-c1ccccc1` [Ebselen]: in “in vitro”, the CC50 came to 8 µM.

For the molecule `O=C1C(Cl)=C(NCCN2CCOCC2)C(=O)c2ncccc21` [DA-3003-1], the “Reported CC50” value in the data set on cell culture was 7.7 µM. The CC50 in data set [1] (setting [3]) was found to be 7.7 µM.

For `Cc1ccc(C(=O)Nc2ccc(S(=O)(=O)O)c3cc(S(=O)(=O)O)cc(S(=O)(=O)O)c23)cc1NC(=O)c1cccc(NC(=O)Nc2cccc(C(=O)Nc3cc(C(=O)Nc4ccc(S(=O)(=O)O)c5cc(S(=O)(=O)O)cc(S(=O)(=O)O)c45)ccc3C)c2)c1` [Suramin], the EC50 in the data set on SARS-CoV-2 is 20 µM. In “in vitro”, this molecule displayed a CC50 above 100 µM. Further, in the data set with cell culture, the “Reported CC50” value is reported as >20–>5000.

For the molecule `Cc1ccc(NC(=O)c2ccc(CN3CCN(C)CC3)cc2)cc1Nc1nc(-c2cccnc2)cs1` [Masitinib], in the data set “in vitro” (setting [2]), the CC50 at 30 h post-transfection was determined as 3 µM.

With `CCN(CC)CCCC(C)Nc1c2ccc(Cl)cc2nc2ccc(OC)cc12` (stereo not drawn) [Quinacrine], the CC50 in the data set “in vitro” amounted to 2.5 µM.

For `CC(C)CN(C[C@@H](O)[C@H](Cc1ccccc1)NC(=O)O[C@H]1CCOC1)S(=O)(=O)c1ccc(N)cc1` [Amprenavir], in the data set “in vitro”, the CC50 at 30 h post-transfection was above 100 µM.

Consider `CSCC[C@@H](C=O)NC(=O)[C@H](CC(C)C)NC(=O)[C@H](CC(C)C)NC(C)=O` [Calpain Inhibitor II] (Ac-Leu-Leu-Met-aldehyde), for which, in the data set with cell culture, the “Reported CC50” value is above 100 µM. In data set [1], this molecule yielded a CC50 above 100 µM.

`O.O=C(OC[C@H]1O[C@@H](OC(=O)c2cc(O)c(O)c(O)c2)[C@H](OC(=O)c2cc(O)c(O)c(O)c2)[C@@H](OC(=O)c2cc(O)c(O)c(O)c2)[C@@H]1OC(=O)c1cc(O)c(O)c(O)c1)c1cc(O)c(O)c(O)c1` [penta-O-galloyl-beta-D-glucose hydrate]: the “Reported CC50” value with cell culture is reported as 11.2 µM. Besides, the CC50 in data set [1] is 30.4 µM.

In turn, `C=C[C@@H]1C[C@]1(NC(=O)[C@@H]1C[C@@H]2CN1C(=O)[C@H](C(C)(C)C)NC(=O)O[C@@H]1C[C@H]1CCCCCc1nc3ccc(OC)cc3nc1O2)C(=O)NS(=O)(=O)C1CC1` [Grazoprevir] yielded a CC50 in data set [1] of 57.4 µM.

`COC(=O)N[C@H](C(=O)N[C@@H](Cc1ccccc1)[C@@H](O)CN(Cc1ccc(-c2ccccn2)cc1)NC(=O)[C@@H](NC(=O)OC)C(C)(C)C)C(C)(C)C` [Atazanavir] displayed a CC50 at 30 h post-transfection in the data set “in vitro” above 100 µM.

Consider `CCC[C@@H](C=O)NC(=O)[C@H](CC(C)C)NC(=O)[C@H](CC(C)C)NC(=O)OCc1ccccc1` [MG-115] (Cbz-Leu-Leu-[Nva]-aldehyde), for which the “Reported CC50” value with cell culture was 1.1 µM. The CC50 in data set [1] (setting [3]) came out at 11 µM.

In the case of `CCCC(NC(=O)C(CC(C)C)NC(=O)OCc1ccccc1)C(=O)C(=O)NCc1ccccn1` (stereo not drawn) [Calpain Inhibitor XII], in the data set with cell culture, the “Reported CC50” value is above 100 µM. The CC50 in data set [1] is above 100 µM.

Regarding `CC(C)C[C@H](NC(=O)OCc1ccccc1)C(=O)N[C@@H](CC1CCNC1=O)C(O)S(=O)(=O)O` (stereo partly drawn) [GC376], in the data set with SARS-CoV-2, the 50% effective concentration (EC50) is 0.2 to 4.5 µM. This molecule also showed a CC50 in data set [1] above 100 µM.

With `COc1ccc2c(O[C@@H]3C[C@H]4C(=O)N[C@]5(C(=O)NS(=O)(=O)C6CC6)C[C@H]5/C=C\CCCCN(C)C(=O)[C@@H]4C3)cc(-c3nc(C(C)C)cs3)nc2c1C` [Simeprevir], the CC50 at 30 h post-transfection in the data set “in vitro” was 19.6 µM.

`CCC[C@@]1(CCc2ccccc2)CC(O)=C([C@H](CC)c2cccc(NS(=O)(=O)c3ccc(C(F)(F)F)cn3)c2)C(=O)O1` [Tipranavir]: the CC50 at 30 h post-transfection in “in vitro” amounted to 85.1 µM.

In “in vitro”, `COc1cc(C)c2c(Oc3cccc(C(F)(F)F)c3)c(OC)cc(NC(C)CCCN)c2n1` (stereo not drawn) [Tafenoquine] displayed a CC50 at 30 h post-transfection of 2 µM. The “Reported CC50” value with cell culture was 37.2 µM.

The molecule `C=C[C@@H]1C[C@]1(NC(=O)[C@@H]1C[C@@H](Oc2ncc(OC)c3ccc(Cl)cc23)CN1C(=O)[C@@H](NC(=O)OC(C)(C)C)C(C)(C)C)C(=O)NS(=O)(=O)C1CC1` [Asunaprevir] yielded a CC50 in the data set “in vitro” of 31.5 µM.

Consider `CC(C)(C)NC(=O)[C@@H]1CN(Cc2cccnc2)CCN1C[C@@H](O)C[C@@H](Cc1ccccc1)C(=O)N[C@H]1c2ccccc2C[C@H]1O` [Indinavir], for which the CC50 in “in vitro” was above 100 µM.

Turning to `CC(NC(=O)[C@H](Cc1ccccc1)NC(=O)OCc1ccccc1)C(=O)CF` (stereo partly drawn) [Z-FA-FMK], in the data set on cell culture, the “Reported CC50” value is above 20 µM. Moreover, the CC50 in data set [1] (setting [3]) was above 100 µM.

With `CC(C)C[C@H](NC(=O)OCc1ccccc1)C(=O)N[C@@H](C[C@@H]1CCNC1=O)C(O)S(=O)(=O)[O-].[Na+]` (stereo partly drawn) [GC376], the “Reported CC50” value in the data set with cell culture is >100–>200. Also, the “Effect on cell viability (in words)” value in data set [1] was “no significant effect on cell viability up to 100 µM”.

In the case of `O=c1cc(-c2ccccc2)oc2cc(O)c(O)c(O)c12` [Baicalein], the CC50 in the data set “in vitro” was above 100 µM.

Molecule `Cc1c(O)cccc1C(=O)N[C@@H](CSc1ccccc1)[C@H](O)CN1C[C@H]2CCCC[C@H]2C[C@H]1C(=O)NC(C)(C)C` [Nelfinavir] displayed a CC50 in the data set “in vitro” of 11.2 µM.

As to GRL-0496, in the data set on SARS-CoV-2, the EC50 was 9.1 µM. The “Reported CC50” value with cell culture is 81.0 µM. The CC50 in data set [1] is 53.2 µM.

Regarding `Brc1c(Br)c(Br)c2n[nH]nc2c1Br` [TBB], the “Reported CC50” value in the data set on cell culture was 8.9 µM.

In the data set “in vitro”, `CC(C)(C)NC(=O)[C@@H]1C[C@@H]2CCCC[C@@H]2CN1C[C@@H](O)[C@H](Cc1ccccc1)NC(=O)[C@H](CC(N)=O)NC(=O)c1ccc2ccccc2n1` [Saquinavir] gave a CC50 of 27.3 µM.
